Results: patent publication US4452778A, “Synergistic antibacterial compositions and method of treatment of infections caused by multiple antibiotic-resistant organisms” (Eli Lilly and Company, priority 1981, dated 1984)
Values after ≈ are worked out from the molar mass of the structure shown. Read-outs that look alike come from different tables or passages of the source.

Assays:
Assay type in all cases: cell-based
[1] = tested on: Acinetobacter sp.; experiment: Checkerboard broth dilution synergy study (mic); conditions: for mic of each drug in combination I + T: Table II; for mic of each drug in combination I + A: Table III
[2] = tested on: E. cloacae; experiment: Checkerboard broth dilution synergy study (mic); conditions: for MIC: Enterobacter cloacae, read-out: mic, drug alone
[3] = tested on: Proteus rettgeri; experiment: Checkerboard broth dilution synergy study (mic); conditions: for MIC: Providencia rettgeri, read-out: mic, drug alone
[4] = tested on: Pseudomonas pseudomallei; experiment: microbe, parasite or virus in culture
[5] = tested on: Pseudomonas maltophilia; experiment: Checkerboard broth dilution synergy study (mic); conditions: for MIC: Stenotrophomonas maltophilia, read-out: mic, drug alone
[6] = tested on: E. coli; experiment: Checkerboard broth dilution synergy study (mic); conditions: Table II; for MIC: Escherichia coli, read-out: mic, drug alone

SMILES: COC1(NC(=O)C(C(=O)O)c2ccc(O)cc2)C(=O)N2C(C(=O)O)=C(CSc3nnnn3C)COC21 (stereo not shown) [1-oxa compound I, moxalactam]
- mic of each drug in combination I + T ([1]; strain 106): 0.6 µg/mL
- mic of each drug in combination I + T ([1]; strain 107): 2 µg/mL
- mic of each drug in combination I + T ([1]; strain 109): 2 µg/mL
- mic of each drug in combination I + A ([1]; isolate 28-1): 2 µg/mL
- mic of each drug in combination I + A ([1]; isolate 28-2): < 0.06 µg/mL
- mic of each drug in combination I + A ([1]; isolate 106): < 0.06 µg/mL
- mic of each drug in combination I + A ([1]; isolate 107): 8 µg/mL
- mic of each drug in combination I + A ([1]; isolate 109): 8 µg/mL
- MIC ([2]; Table II, strain 1246): 0.25 µg/mL
- MIC ([2]; Table II, strain 1253): 4 µg/mL
- MIC ([2]; Table II, strain 1415): 0.12 µg/mL
- MIC ([2]; Table II, strain B293): 0.5 µg/mL
- MIC ([2]; Table III, isolate 228): 0.12 µg/mL
- MIC ([2]; Table III, isolate 1253): 4 µg/mL
- MIC ([2]; Table III, isolate 1296): 0.25 µg/mL
- MIC ([2]; Table III, isolate 1415): 0.12 µg/mL
- MIC ([2]; Table III, isolate McQuinn): 0.25 µg/mL
- mic of each drug in combination I + T ([2]; Table II, strain 1246): < 0.12 µg/mL
- mic of each drug in combination I + P ([2]; Table II, strain 1253): 2 µg/mL
- mic of each drug in combination I + T ([2]; Table II, strain 1253): 0.25 µg/mL
- mic of each drug in combination I + T ([2]; Table II, strain 1415): 0.12 µg/mL
- mic of each drug in combination I + P ([2]; Table II, strain B293): 0.25 µg/mL
- mic of each drug in combination I + T ([2]; Table II, strain B293): 0.12 µg/mL
- mic of each drug in combination I + A ([2]; Table III, isolate 228): < 0.06 µg/mL
- mic of each drug in combination I + A ([2]; Table III, isolate 1253): < 0.06 µg/mL
- mic of each drug in combination I + A ([2]; Table III, isolate 1296): 0.06 µg/mL
- mic of each drug in combination I + A ([2]; Table III, isolate 1415): 0.12 µg/mL
- mic of each drug in combination I + A ([2]; Table III, isolate McQuinn): 0.12 µg/mL
- MIC ([3]; Table II, strain 65): 0.25 µg/mL
- MIC ([3]; Table III, isolate 53): 0.25 µg/mL
- MIC ([3]; Table III, isolate 136-1): 0.25 µg/mL
- MIC ([3]; Table III, isolate 768): 0.5 µg/mL
- MIC ([3]; Table III, isolate 997): 0.4 µg/mL
- MIC ([3]; Table III, isolate 1422): 2 µg/mL
- mic of each drug in combination I + T ([3]; Table II, strain 65): 0.12 µg/mL
- mic of each drug in combination I + A ([3]; Table III, isolate 53): < 0.06 µg/mL
- mic of each drug in combination I + A ([3]; Table III, isolate 136-1): 0.12 µg/mL
- mic of each drug in combination I + A ([3]; Table III, isolate 768): < 0.06 µg/mL
- mic of each drug in combination I + A ([3]; Table III, isolate 997): < 0.06 µg/mL
- mic of each drug in combination I + A ([3]; Table III, isolate 1422): 2 µg/mL
- MIC ([4]; Burkholderia pseudomallei, read-out: mic, drug alone): 32 µg/mL (≈ 61.5 µM)
- mic of each drug in combination I + A ([4]; Table III, isolate not named): 4 µg/mL
- MIC ([5]; Table II, strain 10): 32 µg/mL
- MIC ([5]; Table II, strain 11): 4 µg/mL
- MIC ([5]; Table II, strain 505): 8 µg/mL
- MIC ([5]; Table III, isolate 10): 32 µg/mL
- MIC ([5]; Table III, isolate 505): 8 µg/mL
- mic of each drug in combination I + T ([5]; Table II, strain 10): 4 µg/mL
- mic of each drug in combination I + T ([5]; Table II, strain 11): 0.5 µg/mL
- mic of each drug in combination I + T ([5]; Table II, strain 505): 0.6 µg/mL
- mic of each drug in combination I + A ([5]; Table III, isolate 10): 8 µg/mL
- mic of each drug in combination I + A ([5]; Table III, isolate 505): 2 µg/mL
- MIC ([6]; strain 46-2): 0.03 µg/mL
- MIC ([6]; strain 77-3): 0.03 µg/mL
- MIC ([6]; strain 136-3): 0.06 µg/mL
- MIC ([6]; strain 1260): 0.03 µg/mL
- MIC ([6]; strain 1262): 0.03 µg/mL
- MIC ([6]; strain Briley): 0.12 µg/mL
- MIC ([6]; strain Dill): 0.25 µg/mL
- mic of each drug in combination I + P ([6]; strain 46-2): < 0.12 µg/mL
- mic of each drug in combination I + T ([6]; strain 46-2): < 0.12 µg/mL
- mic of each drug in combination I + T ([6]; strain 77-3): < 0.12 µg/mL
- mic of each drug in combination I + T ([6]; strain 136-3): < 0.12 µg/mL
- mic of each drug in combination I + P ([6]; strain 1253): 0.5 µg/mL
- mic of each drug in combination I + T ([6]; strain 1253): < 0.12 µg/mL
- mic of each drug in combination I + T ([6]; strain 1260): < 0.12 µg/mL
- mic of each drug in combination I + P ([6]; strain 1262): < 0.12 µg/mL
- mic of each drug in combination I + T ([6]; strain 1262): < 0.12 µg/mL
- mic of each drug in combination I + P ([6]; strain 1415): < 0.12 µg/mL
- mic of each drug in combination I + T ([6]; strain 1415): < 0.12 µg/mL
- mic of each drug in combination I + P ([6]; strain Briley): < 0.12 µg/mL
- mic of each drug in combination I + T ([6]; strain Briley): < 0.12 µg/mL
- mic of each drug in combination I + T ([6]; strain Dill): < 0.12 µg/mL
